Measurements published in ChEMBL document CHEMBL5260810, “Inhibition of bromodomain-containing protein 9 for the prevention of epigenetically-defined drug resistance” (Bioorg Med Chem Lett, 2017).
pIC50: −log10 of the molar value.

Key:
Format in all cases: functional, cell-based
[1] = system: RS4-11; experiment: Cytotoxicity against human RS4-11 cells measured after 8 days; settings: RS4-11, 192 h
[2] = Cytotoxicity against human NCI-H2804 cells measured after 8 days; settings: NCI-H2804, 192 h
[3] = system: CFPAC-1; experiment: Cytotoxicity against human CFPAC-1 cells measured after 8 days; settings: CFPAC-1, 192 h
[4] = system: 8305C; experiment: Cytotoxicity against human 8305C cells measured after 8 days; settings: 192 h
[5] = system: NCI-H2170; experiment: Cytotoxicity against human NCI-H2170 cells measured after 8 days; settings: NCI-H2170, 192 h
[6] = system: A-431; experiment: Cytotoxicity against human A-431 cells measured after 8 days; settings: A-431, 192 h
[7] = system: BFTC-909; experiment: Cytotoxicity against human BFTC-909 cells measured after 8 days; settings: BFTC-909, 192 h
[8] = system: OAW-42; experiment: Cytotoxicity against human OAW-42 cells measured after 8 days; settings: OAW-42, 192 h
[9] = system: Capan-2; experiment: Cytotoxicity against human Capan-2 cells measured after 8 days; settings: Capan-2, 192 h
[10] = system: KYSE-450; experiment: Cytotoxicity against human KYSE-450 cells measured after 8 days; settings: KYSE-450, 192 h
[11] = system: TOV112D; experiment: Cytotoxicity against human TOV112D cells measured after 8 days; settings: 192 h
[12] = Cytotoxicity against human HCC597 cells measured after 8 days; settings: HCC597, 192 h
[13] = Cytotoxicity against human VMRC-RCW cells measured after 8 days; settings: 192 h
[14] = system: SW982; experiment: Cytotoxicity against human SW982 cells measured after 8 days; settings: SW982, 192 h
[15] = system: GI-1; experiment: Cytotoxicity against human GI-1 cells measured after 8 days; settings: GI-1, 192 h
[16] = Cytotoxicity against human JHH7 cells measured after 8 days; settings: JHH7, 192 h
[17] = Cytotoxicity against human KLM-1 cells measured after 8 days; settings: KLM1, 192 h
[18] = system: MC-IXC; experiment: Cytotoxicity against human MC-IXC cells measured after 8 days; settings: 192 h
[19] = system: SNU-182; experiment: Cytotoxicity against human SNU-182 cells measured after 8 days; settings: SNU-182, 192 h
[20] = system: CCF-STTG1; experiment: Cytotoxicity against human CCF-STTG1 cells measured after 8 days; settings: CCF-STTG1, 192 h
[21] = system: BXPC-3; experiment: Cytotoxicity against human BXPC-3 cells measured after 8 days; settings: BXPC-3, 192 h
[22] = Cytotoxicity against human HLF cells measured after 8 days; settings: 192 h
[23] = Cytotoxicity against human MOLP8 cells measured after 8 days; settings: MOLP-8, 192 h
[24] = Cytotoxicity against human PK-1 cells measured after 8 days; settings: PK-1, 192 h
[25] = Cytotoxicity against mouse TRAMP-C1 cells measured after 8 days; settings: TRAMP-C1, 192 h
[26] = Cytotoxicity against mouse LTPA cells measured after 8 days; settings: 192 h
[27] = system: SF-268; experiment: Cytotoxicity against human SF-268 cells measured after 8 days; settings: SF-268, 192 h
[28] = system: SUP-B15; experiment: Cytotoxicity against human SUP-B15 cells measured after 8 days; settings: SUP-B15, 192 h
[29] = system: NCI-N87; experiment: Cytotoxicity against human NCI-N87 cells measured after 8 days; settings: NCI-N87, 192 h
[30] = system: G-401; experiment: Cytotoxicity against human G-401 cells measured after 8 days; settings: G-401, 192 h
[31] = system: Hs 683; experiment: Cytotoxicity against human Hs 683 cells measured after 8 days; settings: Hs 683, 192 h
[32] = Cytotoxicity against human 59M cells measured after 8 days; settings: 192 h
[33] = Cytotoxicity against human COV413B cells measured after 8 days; settings: 192 h
[34] = system: KM12; experiment: Cytotoxicity against human KM12 cells measured after 8 days; settings: KM12, 192 h
[35] = Cytotoxicity against human GCH-nu-YS cells measured after 8 days; settings: 192 h
[36] = Cytotoxicity against human Panc 05.04 cells measured after 8 days; settings: Panc 05.04, 192 h
[37] = system: MCF-10A; experiment: Cytotoxicity against human MCF-10A PTEN-/- cells measured after 8 days; settings: 192 h
[38] = Cytotoxicity against mouse TRAMP-C2 cells measured after 8 days; settings: TRAMP-C2, 192 h
[39] = system: MDA-MB-175-VII; experiment: Cytotoxicity against human MDA-MB-175-VII cells measured after 8 days; settings: 192 h
[40] = system: TYK-nu; experiment: Cytotoxicity against human TYK-nu cells measured after 8 days; settings: 192 h
[41] = Cytotoxicity against human HCC1010 cells measured after 8 days; settings: HCC1010, 192 h
[42] = system: Panc1005; experiment: Cytotoxicity against human Panc1005 cells measured after 8 days; settings: Panc1005, 192 h
[43] = Cytotoxicity against human COLO 858 cells measured after 8 days; settings: COLO 858, 192 h
[44] = Cytotoxicity against human KR7414 cells measured after 8 days; settings: KR7414, 192 h
[45] = system: Hs 766; experiment: Cytotoxicity against human Hs 766 cells measured after 8 days; settings: Hs 766, 192 h
[46] = system: HT-1080; experiment: Cytotoxicity against human HT-1080 cells measured after 8 days; settings: HT-1080, 192 h
[47] = system: MOLM-13; experiment: Cytotoxicity against human MOLM-13 cells measured after 8 days; settings: MOLM-13, 192 h
[48] = system: KG-1; experiment: Cytotoxicity against human KG-1 cells measured after 8 days; settings: KG-1, 192 h
[49] = system: MM1.S; experiment: Cytotoxicity against human MM1.S cells measured after 8 days; settings: 192 h
[50] = system: GB-1; experiment: Cytotoxicity against human GB-1 cells measured after 8 days; settings: GB-1, 192 h
[51] = Cytotoxicity against human OCI-M1 cells measured after 8 days; settings: OCI-M1, 192 h
[52] = Cytotoxicity against human MS751 cells measured after 8 days; settings: MS751, 192 h
[53] = system: HEC-1B cell line; experiment: Cytotoxicity against human HEC-1B cell line measured after 8 days; settings: 192 h
[54] = system: IMR-32; experiment: Cytotoxicity against human IMR-32 cells measured after 8 days; settings: IMR-32, 192 h
[55] = system: OE19; experiment: Cytotoxicity against human OE19 cells measured after 8 days; settings: OE19, 192 h
[56] = system: KMS-11; experiment: Cytotoxicity against human KMS-11 cells measured after 8 days; settings: KMS-11, 192 h
[57] = system: NCI-H2052; experiment: Cytotoxicity against human NCI-H2052 cells measured after 8 days; settings: NCI-H2052, 192 h
[58] = system: KYSE-180; experiment: Cytotoxicity against human KYSE-180 cells measured after 8 days; settings: KYSE-180, 192 h
[59] = Cytotoxicity against human KE-39 cells measured after 8 days; settings: KE-39, 192 h
[60] = Cytotoxicity against human CL-34 cells measured after 8 days; settings: CL-34, 192 h
[61] = Cytotoxicity against human NCI-H2135 cells measured after 8 days; settings: NCI-H2135, 192 h
[62] = system: ES-2; experiment: Cytotoxicity against human ES2 cells measured after 8 days; settings: ES-2, 192 h

Measured: pIC50

C/C=C/Cn1cc(-c2cc(OC)c(C(=O)N3CCOCC3)cc2OC)c2cc(C)[nH]c2c1=O
5.70: [1]

C/C=C/Cn1cc(-c2ccc(C(C)(C)O)cc2OC)c2cc[nH]c2c1=O
4.81: [1]
5.04: [56]
5.21: [47]
4.97: [51]
4.75: [16]
4.70: all other assays above

C/C=C/Cn1cc(-c2ccc(C(=O)N3CCOCC3)cc2)c2cc[nH]c2c1=O
4.74: [23]
4.94: [51]
4.71: [25]
5.03: [47]
4.98: [53]
4.91: [56]
not listed: [1]
4.70: all other assays above
